According to patent publication US20250387481A1, “PRE-TREATED T CELLS FOR USE AS A MEDICAMENT” (STICHTING HET NEDERLANDS KANKER INSTITUUT-ANTONI VAN …, priority 2022, published 2025):

How the values were obtained:
[1] = system: KB1P organoids; assay: MTT measurement of KB1P organoid survival upon increasing doses of docetaxel; assay type: cell-based; conditions: Mus musculus, docetaxel for 72 h
Description: Breast cancer organoids were derived from K14-Cre; Brca1fl/fl; p53fl/fl mouse mammary tumors (KB1P (Kester, L., et al. Clin Cancer Res, 2022.)) and from MMTV-PyMT (Duarte, A. A., et al. Nat Methods, 2018. 15(2): p. 134-140) mouse mammary tumors. Both lines were cultured in 50 μl drops of Cultrex PathClear Reduced Growth Factor Basement Membrane Extract Type 2 (BME, Amsbio, 3533-005-02). KB1P organoids were cultured in Advanced Dulbecco's modified Eagle's medium (adDMEM/F12; Thermo Fisher Scientific. Cat. No. 12634-010) containing Hepes (10 mmol/L; Thermo Fisher Scientific, Cat. No. 15630-056), Penicillin/streptomycin (10,000 U/ml; Thermo Fisher Scientific, Cat. No. 15140-122), B27 (2% Thermo Fisher Scientific, Cat. No. 17504-044), N-acetylcysteine (1.25 mM; Sigma-Aldrich, Cat. No. A9165) and fibroblast growth factor (FGF, 12 ng/ml; Invitrogen, Cat. No. PHG0261). MMTV-PyMT organoids were cultured in DMEM/F12 GlutaMAX (Gibco, Cat. No 10565018) supplemented with 10 mmol/L Hepes (Gibco, Cat. No 15630106), Penicillin/streptomycin (10,000 U/ml; Thermo Fisher Scientific, Cat. No. 15140-122), B27 (2% Thermo Fisher Scientific, Cat. No. 17504-044) and fibroblast growth factor (FGF, 12 ng/ml; Invitrogen, Cat. No. PHG0261). […]
Following co-culture, medium was removed, and cultures were washed in PBS to remove T cells. […] Plates were read with a 565 nm wavelength.

[2] = system: Jurkat T cells; assay: MTT assessment of Jurkat T cell survival; assay type: cell-based, human; conditions: 5 nmol/L, 72 h
Description: Preparation of Jurkat T cells: Jurkat T cells were cultured in Roswell Park Memorial Institute (RPMI) 1640 Medium (Thermo Fisher Scientific, Cat. No. 21875034) containing FBS (10%, Thermo Fisher Scientific, Cat. No. A4766801), Penicillin/streptomycin (10,000 U/ml; Thermo Fisher Scientific, Cat. No. 15140-122), and Ultraglutamine (2 mmol/L, Lonza, Cat. No. BE17-605E/U1). Jurkat T cells were kept in 20% O2, 5% CO2 and at 37 degrees Celsius. Jurkat T cells were treated for 72 h with PBS or with docetaxel (docetaxel 5 nmol/L). Subsequently, Jurkat T cells were collected and washed 3 times in PBS to remove residual chemotherapy.
About 100,000 T cells were seeded per well in a 96-well plate and treated with
increasing doses of docetaxel, paclitaxel, or carboplatin for 72 h. Next, T cells were incubated with Thiazolyl Blue Tetrazolium Bromide (0.5 mg/ml, Sigma Aldrich, Cat. No. 298-93-1) for 3 hr in the dark at 37 degrees Celsius. Subsequently, T cells were incubated for 16 h in the dark in a lysis buffer (40% dimerhylofrmamide, 0.55 mol/L sodium dodecyl sulfate, 2% acetic acid, 8.4 mmol/L HCl in MilliQ water). Plates were read with a 565 nm wavelength.

[3] = system: human healthy lung organoids; assay: Healthy organoids killing assay with tumor-reactive T cells; assay type: cell-based; conditions: tumor-reactive T cells pre-treated with docetaxel
Description: (§1) To express luciferase in the tumor organoids, we used pLenti CMV Puro LUC (w168-1; Plasmid #17477; Addgene). Tumor-reactive PBMC were thawed in pre-warmed T cell medium and incubated for 15 minutes with 25 U/ml Benzonase. After washing, cells were re-suspended at 2−3×10^6 cells/ml in T cell medium and cultured overnight at 37° C. The day after, PBMC were incubated with (or without) 10 nmol/L docetaxel for 48 hr. To determine the sensitivity of tumor and healthy organoids to T cell-mediated killing, flatbottom non-tissue culture treated plates were coated with 5 μg/ml αCD28 and kept at 4° C. overnight prior to co-culture. Tumor organoids were previously transduced with luciferase reporter gene. Organoids were isolated from Geltrex 48 hours prior to co-culture and stimulated with 200 ng/ml IFNγ for 24 hr prior to co-culture. The next day, part of the organoids was dissociated to single cells and counted using a hemocytometer. […] At the end of the 72 hours, tumor and healthy organoids viability in the different conditions was evaluated by microscopy, taking bright-field pictures at 5 and 10× magnification. Tumor cell viability in the different conditions was also measured by luciferase reporter assay using 3 μg/mL luciferin. Luminescence was measured with a Tecan reader (1,000 ms exposure).

[4] = system: KB1P organoids; assay: Co-culture of pre-treated splenic T cells with KB1P organoids (MTT, cleaved-caspase 3); assay type: cell-based, mouse; conditions: T cells that cannot mature nor produce a TCR response
[5] = system: human lung tumor organoids; assay: Tumor organoids killing assay with autologous tumor-reactive T cells; assay type: cell-based; conditions: tumor-reactive T cells pre-treated with 10 nmol/L docetaxel
Description: as §1

CC(=O)O[C@@]12CO[C@@H]1C[C@H](O)[C@@]1(C)C(=O)[C@H](O)C3=C(C)[C@@H](OC(=O)[C@H](O)[C@@H](NC(=O)OC(C)(C)C)c4ccccc4)C[C@@](O)([C@@H](OC(=O)c4ccccc4)[C@H]21)C3(C)C [docetaxel]
IC50 [1]: 90.5 nM
Jurkat T cells survival (MTT) [2]: did not significantly reduce Jurkat T cells survival
killing of healthy organoids [3]: not against healthy organoids
T cell-mediated killing by T cells from NOD-SCID IL2rg-/- mice [4]: triggered T cell-mediated killing
anti-tumor capacity against tumor organoids (organoid viability, luciferase) [5]: increased their anti-tumor capacity
